# Test results reported in publication PMC12176259, “Bacterial transcriptional repressor NrdR – a flexible multifactorial nucleotide sensor” (The Febs Journal, 2025).
# Legend:
# [1] = target: T1, E. coli NrdR (EcoNrdR) (Escherichia coli, UniProt P0A8D0); assay: ITC, one set of sites; type: binding
# T1 construct: full-length wild type, C-terminal His6 tag (pET30a(+)), E. coli BL21(DE3); tag not reported removed; co-purified nucleotides stripped for ITC (apo-NrdR); apo dimer, tetramer with ATP-dATP or ADP-dATP; SeMet version for 9FVR
# Source text: ITC, one set of sites on E. coli NrdR (EcoNrdR)
# [2] = target: T1, E. coli NrdR (EcoNrdR); assay: X-ray crystal structure, […] Å; type: binding; details: with dATP and Mg2+; inner site
# T1 sequence (P0A8D0 whole entry): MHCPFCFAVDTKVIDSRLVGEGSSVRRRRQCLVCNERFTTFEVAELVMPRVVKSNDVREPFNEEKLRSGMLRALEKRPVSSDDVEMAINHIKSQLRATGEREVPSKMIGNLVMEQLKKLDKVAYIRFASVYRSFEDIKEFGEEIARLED
Kd [1],SMILES,"X-ray crystal structure, 2.33 Å [2]"
343 ± 19 nM,Nc1ncnc2c1ncn2[C@@H]1O[C@H](COP(=O)(O)OP(=O)(O)O)[C@@H](O)[C@H]1O [ADP],–
–,Nc1ncnc2c1ncn2[C@@H]1O[C@H](COP(=O)(O)OP(=O)(O)NP(=O)(O)O)[C@@H](O)[C@H]1O [AMPPNP],"In complex with dATP and AMPPNP, EcoNrdR is a tetramer"
346 ± 93 nM,Nc1ncnc2c1ncn2[C@@H]1O[C@H](COP(=O)(O)OP(=O)(O)OP(=O)(O)O)[C@@H](O)[C@H]1O [ATP],–
610 ± 231 nM,Nc1ncnc2c1ncn2[C@H]1C[C@H](O)[C@@H](COP(=O)(O)OP(=O)(O)OP(=O)(O)O)O1 [dATP],–
